System: Metabolism protein genes
Assay: DNA chip mRNA expression in yeast, metabolism protein genes (Table 7)
Type: cell-based, Saccharomyces cerevisiae S288C
Method: Yeast (Saccharomyces cerevisiae S288C (α SUC2mal mel gap2 CUP1)) were incubated at 25° C. on YPD medium (yeast extract 1%, polypepton 2%, glucose 2%). One of toxic chemical substances was added to the cells at logarithmic growth phase, and the cells were further incubated for two hours. Cells were cultured without any chemical substance in the same condition, and were used as control. Concentrations of the chemical substances were defined to inhibit the growth of the yeast but not lead to death.
After completion of the incubation, the culture was centrifuged to collect the cells. To the cells, sodium acetate buffer (50 mM sodium acetate, 10 mM EDTA, 1% SDS) was added, and the mixture was shaken at 65° C. for five minutes, followed by returning to room temperature, and obtaining the supernatant, of which the procedures were repeated two times. To the supernatant, ½ amount of a solution of phenol/chloroform was added, and the mixture was centrifuged to give a supernatant, which was added with an equal amount of chloroform, and the mixture was centrifuged to give a supernatant. To the supernatant, an equal amount of isopropanol containing 0.3 M sodium acetate was added, and the mixture was allowed to stand at room temperature for 30 minutes, after which the mixture was centrifuged to give a sediment of the whole RNAs. Seventy % ethanol was added to the sediment, and the mixture was again centrifuged to give a sediment, which was then dried and dissolved in water. mRNA was isolated from the whole RNAs as followings. In view of the fact that a poly A chain is attached to the 3′ terminus of mRNA, a polynucleotide having a poly T structure which was immobilized on the surface of latex beads was used to trap the mRNA, and then the mRNA was washed and eluted with spine column (Oligotex-dT30<Super>mRNA Purification Kit, Takara). Reverse transcription of the mRNA was conducted with a reverse transcriptase (Super Script II Reverse Transcriptase; catalogue No. 18064-014, GibcoBRL) using fluorescence-labeled nucleotides to give cDNAs that were introduced with Cy3-dUTP or Cy5-dUTP during the reverse transcription.
The labeled cDNAs were dissolved in TE buffer (10mM Tris-HCl/1 mM EDTA, pH8.0), and the solution was dropped on the DNA chip containing the whole genes of yeast (DNA Chip Research Inc. Japan) so that the cDNAs were hybridized on the DNA chip at 65° C. for over 12 hours. The fluoresces intensity of the DNA chip was read with a scanner, and the ratio relative to the fluorescence intensity resulting from the absence of chemical substance was estimated as the following, which is shown in Tables 1 to 9: […]

[Cl][Hg][Cl] [(3), HgCl2]
The level of expressed mRNA in the presence of chemical substance/The level of expressed mRNA in the absence of chemical substance (yeast gene YAL012W): 10.4
The level of expressed mRNA in the presence of chemical substance/The level of expressed mRNA in the absence of chemical substance (yeast gene YAL038W): 3.0
level of expressed mRNA in the presence/in the absence of chemical substance (yeast gene YBR003W): 1.0
level of expressed mRNA in the presence/in the absence of chemical substance (yeast gene YBR011C): 2.5
level of expressed mRNA in the presence/in the absence of chemical substance (yeast gene YBR020W): 1.9
The level of expressed mRNA in the presence of chemical substance/The level of expressed mRNA in the absence of chemical substance (yeast gene YBR023C): 1.3
The level of expressed mRNA in the presence of chemical substance/The level of expressed mRNA in the absence of chemical substance (yeast gene YBR029C): 1.8
The level of expressed mRNA in the presence of chemical substance/The level of expressed mRNA in the absence of chemical substance (yeast gene YBR183W): 2.0
The level of expressed mRNA in the presence of chemical substance/The level of expressed mRNA in the absence of chemical substance (yeast gene YBR222C): 1.3
The level of expressed mRNA in the presence of chemical substance/The level of expressed mRNA in the absence of chemical substance (yeast gene YBR256C): 0.6
The level of expressed mRNA in the presence of chemical substance/The level of expressed mRNA in the absence of chemical substance (yeast gene YCL009C): 2.0
The level of expressed mRNA in the presence of chemical substance/The level of expressed mRNA in the absence of chemical substance (yeast gene YCL064C): 0.8
level of expressed mRNA in the presence/in the absence of chemical substance (yeast gene YCR010C): 1.6
level of expressed mRNA in the presence/in the absence of chemical substance (yeast gene YCR034W): 2.5
The level of expressed mRNA in the presence of chemical substance/The level of expressed mRNA in the absence of chemical substance (yeast gene YCR048W): 1.0
The level of expressed mRNA in the presence of chemical substance/The level of expressed mRNA in the absence of chemical substance (yeast gene YCR098C): 1.7
The level of expressed mRNA in the presence of chemical substance/The level of expressed mRNA in the absence of chemical substance (yeast gene YDR019C): 1.7
level of expressed mRNA in the presence/in the absence of chemical substance (yeast gene YDR050C): 2.3
level of expressed mRNA in the presence/in the absence of chemical substance (yeast gene YDR073W): 0.7
level of expressed mRNA in the presence/in the absence of chemical substance (yeast gene YDR123C): 0.4
level of expressed mRNA in the presence/in the absence of chemical substance (yeast gene YDR178W): 3.4
level of expressed mRNA in the presence/in the absence of chemical substance (yeast gene YDR277C): 1.0
level of expressed mRNA in the presence/in the absence of chemical substance (yeast gene YDR284C): 3.0
level of expressed mRNA in the presence/in the absence of chemical substance (yeast gene YDR345C): 5.6
The level of expressed mRNA in the presence of chemical substance/The level of expressed mRNA in the absence of chemical substance (yeast gene YDR380W): 0.8
level of expressed mRNA in the presence/in the absence of chemical substance (yeast gene YDR400W): 2.2
level of expressed mRNA in the presence/in the absence of chemical substance (yeast gene YDR408C): 1.4
level of expressed mRNA in the presence/in the absence of chemical substance (yeast gene YDR483W): 1.3
The level of expressed mRNA in the presence of chemical substance/The level of expressed mRNA in the absence of chemical substance (yeast gene YDR497C): 0.6
The level of expressed mRNA in the presence of chemical substance/The level of expressed mRNA in the absence of chemical substance (yeast gene YDR502C): 2.4
The level of expressed mRNA in the presence of chemical substance/The level of expressed mRNA in the absence of chemical substance (yeast gene YDR516C): 7.8
level of expressed mRNA in the presence/in the absence of chemical substance (yeast gene YEL063C): 2.4
level of expressed mRNA in the presence/in the absence of chemical substance (yeast gene YER015W): 1.1
The level of expressed mRNA in the presence of chemical substance/The level of expressed mRNA in the absence of chemical substance (yeast gene YER026C): 3.3
The level of expressed mRNA in the presence of chemical substance/The level of expressed mRNA in the absence of chemical substance (yeast gene YER053C): 1.9
The level of expressed mRNA in the presence of chemical substance/The level of expressed mRNA in the absence of chemical substance (yeast gene YER069W): 3.3
level of expressed mRNA in the presence/in the absence of chemical substance (yeast gene YER081W): 2.7
The level of expressed mRNA in the presence of chemical substance/The level of expressed mRNA in the absence of chemical substance (yeast gene YER096W): 2.0
level of expressed mRNA in the presence/in the absence of chemical substance (yeast gene YER120W): 2.5
The level of expressed mRNA in the presence of chemical substance/The level of expressed mRNA in the absence of chemical substance (yeast gene YER178W): 3.6
level of expressed mRNA in the presence/in the absence of chemical substance (yeast gene YFL011W): 3.7
The level of expressed mRNA in the presence of chemical substance/The level of expressed mRNA in the absence of chemical substance (yeast gene YFL014W): 5.7
The level of expressed mRNA in the presence of chemical substance/The level of expressed mRNA in the absence of chemical substance (yeast gene YFL030W): 3.1
The level of expressed mRNA in the presence of chemical substance/The level of expressed mRNA in the absence of chemical substance (yeast gene YFL031W): 2.1
The level of expressed mRNA in the presence of chemical substance/The level of expressed mRNA in the absence of chemical substance (yeast gene YFL056C): 2.3
The level of expressed mRNA in the presence of chemical substance/The level of expressed mRNA in the absence of chemical substance (yeast gene YFL057C): 1.5
The level of expressed mRNA in the presence of chemical substance/The level of expressed mRNA in the absence of chemical substance (yeast gene YFR047C): 2.7
level of expressed mRNA in the presence/in the absence of chemical substance (yeast gene YGL012W): 3.0
The level of expressed mRNA in the presence of chemical substance/The level of expressed mRNA in the absence of chemical substance (yeast gene YGL022W): 1.4
level of expressed mRNA in the presence/in the absence of chemical substance (yeast gene YGL115W): 1.2
The level of expressed mRNA in the presence of chemical substance/The level of expressed mRNA in the absence of chemical substance (yeast gene YGL126W): 1.4
level of expressed mRNA in the presence/in the absence of chemical substance (yeast gene YGL205W): 0.7
The level of expressed mRNA in the presence of chemical substance/The level of expressed mRNA in the absence of chemical substance (yeast gene YGL209W): 1.1
The level of expressed mRNA in the presence of chemical substance/The level of expressed mRNA in the absence of chemical substance (yeast gene YGL248W): 0.9
The level of expressed mRNA in the presence of chemical substance/The level of expressed mRNA in the absence of chemical substance (yeast gene YGR037C): 2.2
The level of expressed mRNA in the presence of chemical substance/The level of expressed mRNA in the absence of chemical substance (yeast gene YGR055W): 12.0
level of expressed mRNA in the presence/in the absence of chemical substance (yeast gene YGR096W): 1.1
level of expressed mRNA in the presence/in the absence of chemical substance (yeast gene YGR191W): 1.6
The level of expressed mRNA in the presence of chemical substance/The level of expressed mRNA in the absence of chemical substance (yeast gene YGR194C): 1.3
level of expressed mRNA in the presence/in the absence of chemical substance (yeast gene YGR204W): 2.7
The level of expressed mRNA in the presence of chemical substance/The level of expressed mRNA in the absence of chemical substance (yeast gene YGR256W): 2.3
The level of expressed mRNA in the presence of chemical substance/The level of expressed mRNA in the absence of chemical substance (yeast gene YGR282C): 4.6
level of expressed mRNA in the presence/in the absence of chemical substance (yeast gene YGR288W): 1.0
level of expressed mRNA in the presence/in the absence of chemical substance (yeast gene YHR025W): 2.4
The level of expressed mRNA in the presence of chemical substance/The level of expressed mRNA in the absence of chemical substance (yeast gene YHR111W): 0.8
level of expressed mRNA in the presence/in the absence of chemical substance (yeast gene YHR123W): 1.8
The level of expressed mRNA in the presence of chemical substance/The level of expressed mRNA in the absence of chemical substance (yeast gene YHR137W): 2.4
The level of expressed mRNA in the presence of chemical substance/The level of expressed mRNA in the absence of chemical substance (yeast gene YHR174W): 3.3
The level of expressed mRNA in the presence of chemical substance/The level of expressed mRNA in the absence of chemical substance (yeast gene YHR176W): 1.1
level of expressed mRNA in the presence/in the absence of chemical substance (yeast gene YHR210C): 0.6
level of expressed mRNA in the presence/in the absence of chemical substance (yeast gene YIL006W): 1.4
The level of expressed mRNA in the presence of chemical substance/The level of expressed mRNA in the absence of chemical substance (yeast gene YIL045W): 1.9
The level of expressed mRNA in the presence of chemical substance/The level of expressed mRNA in the absence of chemical substance (yeast gene YIL107C): 1.1
The level of expressed mRNA in the presence of chemical substance/The level of expressed mRNA in the absence of chemical substance (yeast gene YIL154C): 1.9
The level of expressed mRNA in the presence of chemical substance/The level of expressed mRNA in the absence of chemical substance (yeast gene YIL155C): 1.4
The level of expressed mRNA in the presence of chemical substance/The level of expressed mRNA in the absence of chemical substance (yeast gene YIR034C): 2.5
The level of expressed mRNA in the presence of chemical substance/The level of expressed mRNA in the absence of chemical substance (yeast gene YIR036C): 2.6
The level of expressed mRNA in the presence of chemical substance/The level of expressed mRNA in the absence of chemical substance (yeast gene YJL031C): 0.5
The level of expressed mRNA in the presence of chemical substance/The level of expressed mRNA in the absence of chemical substance (yeast gene YJL068C): 3.4
The level of expressed mRNA in the presence of chemical substance/The level of expressed mRNA in the absence of chemical substance (yeast gene YJL088W): 2.2
The level of expressed mRNA in the presence of chemical substance/The level of expressed mRNA in the absence of chemical substance (yeast gene YJL099W): 0.3
level of expressed mRNA in the presence/in the absence of chemical substance (yeast gene YJL121C): 1.9
level of expressed mRNA in the presence/in the absence of chemical substance (yeast gene YJL167W): 1.4
The level of expressed mRNA in the presence of chemical substance/The level of expressed mRNA in the absence of chemical substance (yeast gene YJL172W): 1.8
level of expressed mRNA in the presence/in the absence of chemical substance (yeast gene YJL216C): 2.2
The level of expressed mRNA in the presence of chemical substance/The level of expressed mRNA in the absence of chemical substance (yeast gene YJL219W): 3.1
level of expressed mRNA in the presence/in the absence of chemical substance (yeast gene YJR077C): 2.0
The level of expressed mRNA in the presence of chemical substance/The level of expressed mRNA in the absence of chemical substance (yeast gene YJR137C): 4.6
level of expressed mRNA in the presence/in the absence of chemical substance (yeast gene YJR143C): 2.1
The level of expressed mRNA in the presence of chemical substance/The level of expressed mRNA in the absence of chemical substance (yeast gene YJR148W): 2.0

From patent publication US8192962B2, “Processes for detecting toxic substances” (Daikin Industries, Ltd., priority 2001, dated 2012)
